# According to the supplement of paper PMC10307832:
# Legend:
# Assay in all cases: relative viability (nuclei count vs DMSO), 5 days (fraction); higher = more cells survive
# JZL-184 + Trametinib = compound: C1CN(CCC1C(C2=CC3=C(C=C2)OCO3)(C4=CC5=C(C=C4)OCO5)O)C(=O)OC6=CC=C(C=C6)[N+](=O)[O-] [JZL-184] + CC(=O)Nc1cccc(-n2c(=O)n(C3CC3)c(=O)c3c(Nc4ccc(I)cc4F)n(C)c(=O)c(C)c32)c1 [Trametinib] (partner 0.02 µM)
# Method in brief: (§1)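 Values are medians from duplicate plates. Each reflects relative viability, defined as the nuclei count of treated wells over that of vehicle wells. Lung cancer cell lines in 1536-well plates were pin-tool dosed one day after seeding with one drug alone or with a fixed anchor-drug dose plus five library-drug doses (not always all listed) in √10 steps, then fixed, stained and imaged at 4× after 5 days.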
# JZL-184 + Olaparib = compound: C1CN(CCC1C(C2=CC3=C(C=C2)OCO3)(C4=CC5=C(C=C4)OCO5)O)C(=O)OC6=CC=C(C=C6)[N+](=O)[O-] [JZL-184] + O=C(c1cc(Cc2n[nH]c(=O)c3ccccc23)ccc1F)N1CCN(C(=O)C2CC2)CC1 [Olaparib] (partner 8 µM)
# Method in brief: as §1
# JZL-184 + Linsitinib = compound: C1CN(CCC1C(C2=CC3=C(C=C2)OCO3)(C4=CC5=C(C=C4)OCO5)O)C(=O)OC6=CC=C(C=C6)[N+](=O)[O-] [JZL-184] + C[C@]1(O)C[C@@H](c2nc(-c3ccc4ccc(-c5ccccc5)nc4c3)c3c(N)nccn32)C1 [Linsitinib] (partner 1 µM)
# Method in brief: as §1
# JZL-184 + Pemetrexed = compound: C1CN(CCC1C(C2=CC3=C(C=C2)OCO3)(C4=CC5=C(C=C4)OCO5)O)C(=O)OC6=CC=C(C=C6)[N+](=O)[O-] [JZL-184] + Nc1nc2[nH]cc(CCc3ccc(C(=O)N[C@@H](CCC(=O)O)C(=O)O)cc3)c2c(=O)[nH]1 [Pemetrexed] (partner 0.2 µM)
# Method in brief: as §1
# JZL-184 + Crizotinib = compound: C1CN(CCC1C(C2=CC3=C(C=C2)OCO3)(C4=CC5=C(C=C4)OCO5)O)C(=O)OC6=CC=C(C=C6)[N+](=O)[O-] [JZL-184] + C[C@@H](Oc1cc(-c2cnn(C3CCNCC3)c2)cnc1N)c1c(Cl)ccc(F)c1Cl [Crizotinib] (partner 1 µM)
# Method in brief: as §1
Cell Line,relative viability (JZL-184 + Trametinib; first compound 0.04 µM),relative viability (JZL-184 + Trametinib; first compound 0.4 µM),relative viability (JZL-184 + Trametinib; first compound 1.265 µM),relative viability (JZL-184 + Trametinib; first compound 4 µM),relative viability (JZL-184 + Olaparib; first compound 0.04 µM),relative viability (JZL-184 + Olaparib; first compound 0.4 µM),relative viability (JZL-184 + Olaparib; first compound 1.265 µM),relative viability (JZL-184 + Olaparib; first compound 4 µM),relative viability (JZL-184 + Linsitinib; first compound 0.04 µM),relative viability (JZL-184 + Linsitinib; first compound 0.4 µM),relative viability (JZL-184 + Linsitinib; first compound 1.265 µM),relative viability (JZL-184 + Linsitinib; first compound 4 µM),relative viability (JZL-184 + Pemetrexed; first compound 0.04 µM),relative viability (JZL-184 + Pemetrexed; first compound 0.4 µM),relative viability (JZL-184 + Pemetrexed; first compound 1.265 µM),relative viability (JZL-184 + Pemetrexed; first compound 4 µM),relative viability (JZL-184 + Crizotinib; first compound 0.04 µM),relative viability (JZL-184 + Crizotinib; first compound 0.4 µM),relative viability (JZL-184 + Crizotinib; first compound 1.265 µM),relative viability (JZL-184 + Crizotinib; first compound 4 µM)
HCC-366,0.384,0.348,0.332,0.276,0.361,0.353,0.302,0.36,0.643,0.49,0.675,0.63,0.175,0.146,0.137,0.161,0.827,0.443,0.526,0.5
HCC-827,0.536,0.55,0.583,0.515,0.556,0.607,0.718,0.627,0.988,0.976,0.949,0.89,0.222,0.199,0.178,0.261,0.918,0.888,0.977,0.854
HOP-62,0.372,0.4,0.375,0.371,0.49,0.328,0.529,0.507,1.09,1.13,0.992,0.784,0.331,0.312,0.306,0.309,1.01,0.905,1.05,0.839
IA-LM,–,–,–,–,0.987,0.737,0.827,0.82,1.06,0.529,0.607,0.554,–,–,–,–,0.988,0.467,0.74,0.9
LC-2-ad,0.94,0.896,0.93,0.881,0.79,0.682,0.696,0.686,0.857,0.698,0.839,0.829,0.293,0.278,0.279,0.265,0.695,0.454,0.481,0.42
LCLC-97TM1,0.215,0.182,0.222,0.206,0.437,0.374,0.371,0.385,0.183,–,0.208,0.198,0.166,0.17,0.13,0.201,0.574,–,0.505,0.271
LCLC-103H,0.644,0.664,0.691,0.674,0.829,0.767,0.765,0.763,1.06,1.16,1,1.05,0.495,0.481,0.453,0.477,1.02,0.959,1.02,1
LK-2,0.903,0.736,0.856,0.721,0.777,0.661,0.939,0.835,0.733,0.559,0.662,0.583,0.235,0.2,0.183,0.277,0.223,0.232,0.211,0.22
LOU-NH91,0.793,0.754,0.848,0.754,1,0.902,0.957,0.889,1,0.924,1.02,0.968,0.389,0.334,0.381,0.394,0.757,0.738,0.771,0.769
NCI-H522,0.856,0.758,0.791,0.802,0.709,0.62,0.648,0.574,–,–,–,–,1.23,0.981,1.02,1.16,–,–,–,–
NCI-H727,0.416,0.366,0.414,0.39,0.661,0.723,0.747,0.552,0.203,0.314,0.233,0.373,–,–,–,–,0.876,0.728,0.903,0.864
NCI-H1395,1.09,0.996,1.01,0.875,0.486,0.458,0.407,0.444,1.12,1.4,1.19,0.99,0.785,0.948,0.985,0.75,–,–,–,–
NCI-H1650,0.778,0.403,0.801,0.657,0.867,0.72,0.87,0.74,–,–,–,–,0.341,0.391,0.366,0.354,1.28,0.995,1.01,0.893
NCI-H1703,–,–,–,–,0.521,0.434,0.576,0.426,0.893,0.765,0.738,0.305,–,–,–,–,0.865,0.554,0.726,0.508
NCI-H1793,0.433,0.481,0.455,0.438,0.978,0.911,0.933,0.861,0.849,0.82,0.853,0.707,0.936,0.801,0.982,0.735,–,–,–,–
NCI-H2170,1.01,0.855,0.864,0.825,0.68,0.613,0.617,0.544,–,–,–,–,0.267,0.258,0.252,0.286,1.38,1.17,1.27,1.17
NCI-H2342,0.837,0.785,0.972,0.756,0.416,0.4,0.383,0.543,–,–,–,–,0.654,0.732,0.78,0.778,–,–,–,–
SW 900,0.74,0.783,0.864,0.693,0.966,0.858,0.844,0.898,–,–,–,–,0.496,0.482,0.537,0.491,–,–,–,–
